Test results published in patent publication US5225607A, “Insecticidal ethers” (Imperial Chemical Industries PLC, priority 1985, dated 1993).

What was measured:
Type in all cases: in vivo
Heliothis virescens = experiment: whole plant or invertebrate; details: in Gossypium hirsutum, 72 h, read-out: grading of mortality, HV
In short: (§1)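 Acetone solution diluted in water + 0.01% wetting agent; 500/250/100 ppm. Treat pests and/or host plant/food medium. Read mortality/knockdown day 1–3. Grades: A 80–100% (S. exigua 70–100%), B 50–79% (50–69%), C <50%.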

Tetranychus urticae = experiment: Insecticidal/acaricidal test, Tetranychus urticae (spider mites - adult), contact; details: 72 h, French bean leaf, 3 days, read-out: grading of mortality, TU
In short: as §1

Musca domestica [1] = experiment: Knockdown test, Musca domestica (houseflies - adults); details: cotton wool/sugar, 4 hours, read-out: grading of knockdown, MD/KD
In short: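 Adult houseflies were exposed to the compound as aqueous acetone preparations with 0.01% Lissapol NX wetting agent, at 500, 250 or 100 ppm. Knockdown was graded A (80–100%), B (50–79%) or C (<50%).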

Spodoptera exigua = experiment: Insecticidal test, Spodoptera exigua (lesser armyworm), residual; details: 72 h, cotton leaf, 3 days, read-out: grading of mortality, SE
Method: The activity of the Product was determined using a variety of insect and acarine pests. The Product was used in the form of liquid preparations containing 500, 250 or 100 parts per million (ppm) by weight of the Product. The preparations were made by dissolving the Product in acetone and diluting the solutions with water containing 0.01% by weight of a wetting agent sold under the trade name "LISSAPOL" NX until the liquid preparations contained the required concentratio of the Product. "Lissapol" is a Registered Trade Mark.
The test procedure adopted with regard to each pest was basically the same and comprised supporting a number of the pests on a medium which was usually a host plant or a foodstuff on which the pests feed, and treating either or both the pests and the medium with the preparations. The mortality of the pests was then assessed at periods usually varying from one to three days after the treatment.
The results of the tests are given in Table IV for each of the Products, at the rate in parts per million given in the second column as a grading of mortality designated as A, B or C wherein A indicates 80-100% mortality or knockdown (70-100% in the case of Spodoptera exigua), B indicates 50-79% mortality or knockdown (50-69% in the case of Spodoptera exigua) and C indicates less than 50% mortality or knockdown.
In Table IV the pest organism used is designated by a letter code and the pest species, the support medium or food, and the type and duration of test is given in Table III.

Nilaparvata lugens = experiment: Insecticidal test, Nilaparvata lugens (brown planthopper), contact; details: 72 h, Cabbage leaf, 3 days, read-out: grading of mortality, NL
In short: as §1

Myzus persicae = experiment: Insecticidal test, Myzus persicae (aphids), contact; details: 72 h, Chinese Cabbage leaf, 3 days, read-out: grading of mortality, MP
In short: as §1

Blattella germanica = experiment: Insecticidal test, Blattella germanica (cockroach nymphs), residual; details: 72 h, plastic pot, 3 days, read-out: grading of mortality, BG
In short: as §1

Musca domestica [2] = experiment: Insecticidal test, Musca domestica (houseflies - adults), contact; details: 24 h, cotton wool/sugar, 1 day, read-out: grading of mortality, MD
In short: as §1

Diabrotica balteata = experiment: Insecticidal test, Diabrotica balteata (rootworm larvae), residual; details: 72 h, filter paper/maize seed, 3 days, read-out: grading of mortality, DB
In short: as §1

Structure (SMILES) | mortality at 500 ppm (Heliothis virescens) | mortality at 500 ppm (Tetranychus urticae) | pest or weed control at 500 ppm (Musca domestica [1]) | mortality at 500 ppm (Spodoptera exigua) | mortality at 500 ppm (Nilaparvata lugens) | mortality at 500 ppm (Myzus persicae) | mortality at 500 ppm (Blattella germanica) | mortality at 500 ppm (Musca domestica [2]) | mortality at 500 ppm (Diabrotica balteata) | mortality at 100 ppm (Heliothis virescens) | mortality at 100 ppm (Tetranychus urticae) | pest or weed control at 100 ppm (Musca domestica [1]) | mortality at 100 ppm (Spodoptera exigua) | mortality at 100 ppm (Nilaparvata lugens) | mortality at 100 ppm (Myzus persicae) | mortality at 100 ppm (Blattella germanica) | mortality at 100 ppm (Musca domestica [2]) | mortality at 100 ppm (Diabrotica balteata) | also measured
CCOc1ccc(C(COCc2cccc(Nc3ccc(F)cc3)c2)C(F)(F)F)cc1 (stereo not drawn) [Compound 11, 1,1,1-Trifluoro-2-(4-ethoxyphenyl)-3-(3-(4-fluorophenylamino)benzyloxy)propane] | < 50% | < 50% | 80 to 100% | 50 to 69% | 80 to 100% | < 50% | 50 to 79% | 50 to 79% | < 50% | – | – | – | – | – | – | – | – | – | –
CCOc1ccc(C(COCc2cccc(Cc3ccccc3)c2)C(F)(F)F)cc1 (stereo not drawn) [Compound 12, 1,1,1-Trifluoro-2-(4-ethoxyphenyl)-3-(3-benzylbenzyloxy)propane] | 80 to 100% | < 50% | 80 to 100% | 70 to 100% | 80 to 100% | 80 to 100% | 80 to 100% | 80 to 100% | 80 to 100% | – | – | – | – | – | – | – | – | – | –
CCOc1ccc(C(COCc2cccc(Oc3ccc(Cl)cc3)c2)C(F)(F)F)cc1F (stereo not drawn) [Compound 13, 1,1,1-Trifluoro-2-(3-fluoro-4-ethoxyphenyl)-3-(3-(4-chlorophenoxy)benzyloxy)propane] | – | – | – | – | – | – | – | – | – | 80 to 100% | < 50% | 80 to 100% | 70 to 100% | 80 to 100% | 80 to 100% | 80 to 100% | 80 to 100% | 50 to 79% | –
CCOc1ccc(C(COCc2cccc(Oc3ccccc3)c2)C(F)(F)F)cc1F (stereo not drawn) [Compound 14, 1,1,1-Trifluoro-2-(3-fluoro-4-ethoxyphenyl)-3-(3-phenoxybenzyloxy)propane] | – | – | – | – | – | – | – | – | – | 80 to 100% | < 50% | 80 to 100% | 70 to 100% | 80 to 100% | 80 to 100% | 80 to 100% | 80 to 100% | 80 to 100% | –
Fc1ccc(C(COCc2ccc(F)c(Oc3ccccc3)c2)C(F)(F)F)cc1 (stereo not drawn) [Compound 18, 1,1,1-Trifluoro-2-(4-fluorophenyl)-3-(3-phenoxy-4-fluorobenzyloxy)propane] | – | – | – | – | – | – | – | – | – | – | – | – | – | – | – | – | – | – | mortality at 250 ppm (Heliothis virescens): 80 to 100%; mortality at 250 ppm (Tetranychus urticae; 250 ppm): 80 to 100%; pest or weed control at 250 ppm (Musca domestica [1]; 250 ppm): 80 to 100%; mortality at 250 ppm (Spodoptera exigua; 250 ppm): 70 to 100%; mortality at 250 ppm (Nilaparvata lugens; 250 ppm): 80 to 100%; mortality at 250 ppm (Myzus persicae; 250 ppm): 80 to 100%; mortality at 250 ppm (Blattella germanica; 250 ppm): 80 to 100%; mortality at 250 ppm (Musca domestica [2]; 250 ppm): 80 to 100%; mortality at 250 ppm (Diabrotica balteata; 250 ppm): 80 to 100%
CC(C)(C)c1ccc(C(COCc2ccc(F)c(Oc3ccccc3)c2)C(F)(F)F)cc1 (stereo not drawn) [Compound 21, 1,1,1-Trifluoro-2-(4-t-butylphenyl)-3-(3-phenoxy-4-fluorobenzyloxy)propane] | 80 to 100% | 80 to 100% | 80 to 100% | 70 to 100% | < 50% | 80 to 100% | 50 to 79% | 80 to 100% | 80 to 100% | – | – | – | – | – | – | – | – | – | –
COCc1ccc(C(COCc2cccc(Oc3ccc(Cl)cc3)c2)C(F)(F)F)cc1 (stereo not drawn) [Compound 23, 1,1,1-Trifluoro-2-(4-methoxymethylphenyl)-3-(3-(4-chlorophenoxy)benzyloxy)propane] | < 50% | < 50% | 80 to 100% | 70 to 100% | 80 to 100% | 50 to 79% | < 50% | 50 to 79% | 80 to 100% | – | – | – | – | – | – | – | – | – | –
COCc1ccc(C(COCc2cccc(Oc3ccccc3)c2)C(F)(F)F)cc1 (stereo not drawn) [Compound 24, 1,1,1-Trifluoro-2-(4-methoxymethylphenyl)-3-(3-phenoxybenzyloxy)propane] | – | – | – | – | – | – | – | – | – | 50 to 79% | < 50% | 80 to 100% | 70 to 100% | 80 to 100% | 80 to 100% | 80 to 100% | 80 to 100% | 80 to 100% | –
